# Laboratory results: US9388147B2 (Receptos, Inc., priority 2009, dated 2016)
# Target: S1P1/EDG1 (Homo sapiens, UniProt P21453)
# Experiment: S1P1 CRE-bla CHOK1 reporter assay, inhibition of Forskolin induced cAMP
# Assay type: cell-based
# Settings: agonist activity range, S1P1 CRE-bla CHOK1, 2 μM Forskolin; read-out: S1P1 ACTIVITY
# Description: Generation of S1P1-Mediated Inhibition of cAMP Reporter Assay
# A mammalian expression plasmid containing S1P1/EDG1 cloned into pcDNA3.1 was purchased from Missouri S&T cDNA Resource Centre. […] S1P1/pcDNA3.1 was transfected into the CRE-bla CHO K1 (Invitrogen) cell line, and stable single cell clones were selected using standard techniques.
# S1P1 CRE-Bla CHOK1 Reporter Assay—Characterization of S1P1 Agonists
# Cells were seeded into 384-well black wall/clear bottom plates at 10^4 cells/well/19.5 μl assay media (DMEM-phenol free, 0.5% charcoal/dextran stripped serum, 2 mM glutamine, 0.1 mM NEAA, 1 mM Na-Pyruvate, 25 mM Hepes) and incubated for 18 hrs at 37° C. in 5% CO2. Dose response curves (10-point) were generated in 10 mM Hepes, 0.1% Pluronic F127, in the presence of Forskolin. Cells were treated with 0.5 μl compound in the presence of 2 μM Forskolin for 4 hrs at 37° C. The FRET-based β-lactamase fluorescent substrate (LiveBLAzer™-FRET B/G Loading Kit CC4-AM; Invitrogen) was prepared according to manufacturer's directions, and incubated with cells for 2 hrs at room temperature. […] Data was analyzed by non-linear regression to determine the EC50 for inhibition of Forskolin induced cAMP.
# S1P1/EDG1, sequence (P21453 whole entry): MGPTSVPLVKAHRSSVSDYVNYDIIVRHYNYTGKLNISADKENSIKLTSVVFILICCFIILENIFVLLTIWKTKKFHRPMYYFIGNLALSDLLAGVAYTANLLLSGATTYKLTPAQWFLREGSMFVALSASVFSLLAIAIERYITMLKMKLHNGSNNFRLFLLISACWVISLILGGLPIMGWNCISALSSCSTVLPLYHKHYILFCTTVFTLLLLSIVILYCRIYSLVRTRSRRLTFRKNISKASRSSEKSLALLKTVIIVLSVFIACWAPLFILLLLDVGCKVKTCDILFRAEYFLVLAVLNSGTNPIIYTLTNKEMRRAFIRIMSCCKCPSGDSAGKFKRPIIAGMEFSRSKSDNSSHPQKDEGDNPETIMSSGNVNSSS
row,SMILES,EC50
1,"CC(C)Oc1ccc(-c2nc(-c3cccc4c3CC[C@H]4O)no2)cc1C#N [Compound 5, (R)-5-(3-(1-hydroxy-2,3-dihydro-1H-inden-4-yl)-1,2,4-oxadiazol-5-yl)-2-isopropoxybenzonitrile]",< 50 pM
2,"CC(C)Oc1ccc(-c2nc(-c3cccc4c3CC[C@@H]4O)no2)cc1C#N [Compound 6, (S)-5-(3-(1-hydroxy-2,3-dihydro-1H-inden-4-yl)-1,2,4-oxadiazol-5-yl)-2-isopropoxy-benzonitrile]",< 50 pM
3,CC(C)Oc1ccc(-c2nc(-c3cccc4c3CC[C@H]4O)no2)cc1C(F)(F)F [Compound 7],500 to 5000 pM
4,CC(C)Oc1ccc(-c2nc(-c3cccc4c3CC[C@@H]4O)no2)cc1C(F)(F)F [Compound 8],50 to 500 pM
5,CCOc1ccc(-c2nc(-c3cccc4c3CC[C@H]4O)no2)cc1C(F)(F)F [Compound 9],500 to 5000 pM
6,CCOc1ccc(-c2nc(-c3cccc4c3CC[C@@H]4O)no2)cc1C(F)(F)F [Compound 10],50 to 500 pM
7,"CC(=O)O[C@@H]1CCc2c(-c3noc(-c4ccc(OC(C)C)c(C#N)c4)n3)cccc21 [Compound 13, (R)-4-(5-(3-cyano-4-isopropoxyphenyl)-1,2,4-oxadiazol-3-yl)-2,3-dihydro-1H-inden-1-yl acetate]",500 to 5000 pM
8,"CC(C)Oc1ccc(-c2nc(-c3cccc4c3CC[C@H]4OC(=O)C(C)(C)C)no2)cc1C#N [Compound 14, (R)-4-(5-(3-cyano-4-isopropoxyphenyl)-1,2,4-oxadiazol-3-yl)-2,3-dihydro-1H-inden-1-yl pivalate]",> 5000 pM
9,CC(C)Oc1ccc(-c2nc(-c3cccc4c3CC[C@H]4NCC(N)=O)no2)cc1C#N [Compound 51],< 50 pM
10,CNC(=O)CN[C@@H]1CCc2c(-c3noc(-c4ccc(OC(C)C)c(C#N)c4)n3)cccc21 [Compound 52],50 to 500 pM
11,"CC(C)Oc1ccc(-c2nc(-c3cccc4c3CC[C@@H]4N[C@@H](C)CO)no2)cc1C#N [Compound 53, 5-(3-((S)-1-(((S)-1-hydroxypropan-2-yl)amino)-2,3-dihydro-1H-inden-4-yl)-1,2,4-oxadiazol-5-yl)-2-isopropoxybenzonitrile]",500 to 5000 pM
12,"CC(C)Oc1ccc(-c2nc(-c3cccc4c3CC[C@H]4N[C@@H](C)CO)no2)cc1C#N [Compound 54, 5-(3-((R)-1-(((S)-1-hydroxypropan-2-yl)amino)-2,3-dihydro-1H-inden-4-yl)-1,2,4-oxadiazol-5-yl)-2-isopropoxybenzonitrile]",50 to 500 pM
13,"CC(C)Oc1ccc(-c2nc(-c3cccc4c3CC[C@@H]4N[C@H](C)CO)no2)cc1C#N [Compound 55, 5-(3-((S)-1-(((R)-1-hydroxypropan-2-yl)amino)-2,3-dihydro-1H-inden-4-yl)-1,2,4-oxadiazol-5-yl)-2-isopropoxybenzonitrile]",50 to 500 pM
14,"CC(C)Oc1ccc(-c2nc(-c3cccc4c3CC[C@H]4N[C@H](C)CO)no2)cc1C#N [Compound 56, 5-(3-((R)-1-(((R)-1-hydroxypropan-2-yl)amino)-2,3-dihydro-1H-inden-4-yl)-1,2,4-oxadiazol-5-yl)-2-isopropoxybenzonitrile]",50 to 500 pM
15,CC(C)Oc1ccc(-c2nc(-c3cccc4c3CC[C@H]4NCC(C)(C)O)no2)cc1C#N [Compound 57],500 to 5000 pM
16,CCN(CC)C(=O)CN[C@@H]1CCc2c(-c3noc(-c4ccc(OC(C)C)c(C#N)c4)n3)cccc21 [Compound 60],500 to 5000 pM
17,CC(C)Oc1ccc(-c2nc(-c3cccc4c3CC[C@H]4NCC(=O)O)no2)cc1C#N [Compound 61],< 50 pM
18,"CC(C)Oc1ccc(-c2nc(-c3cccc4c3CC[C@H]4NCCC(=O)O)no2)cc1C#N [Compound 62, (R)-3-((4-(5-(3-cyano-4-isopropoxyphenyl)-1,2,4-oxadiazol-3-yl)-2,3-dihydro-1H-inden-1-yl)amino)propanoic acid]",< 50 pM
19,CC(C)Oc1ccc(-c2nc(-c3cccc4c3CC[C@H]4N[C@H](C)C(=O)O)no2)cc1C#N [Compound 63],< 50 pM
20,CC(C)Oc1ccc(-c2nc(-c3cccc4c3CC[C@H]4N[C@@H](C)C(=O)O)no2)cc1C#N [Compound 64],< 50 pM
21,"CC(C)Oc1ccc(-c2nc(-c3cccc4c3CC[C@H]4NC(=O)CO)no2)cc1C#N [Compound 65, (R)-N-(4-(5-(3 cyano-4-isopropoxyphenyl)-1,2,4-oxadiazol-3-yl)-2,3-dihydro-1H-inden-1-yl)-2-hydroxyacetamide]",< 50 pM
22,CC(C)Oc1ccc(-c2nc(-c3cccc4c3CC[C@H]4NC(=O)CN)no2)cc1C#N [Compound 66],50 to 500 pM
23,CC(C)Oc1ccc(-c2nc(-c3cccc4c3CC[C@H]4NC(=O)CN(C)C)no2)cc1C#N [Compound 67],50 to 500 pM

row,SMILES,EC50
1,CC(C)Oc1ccc(-c2nc(-c3cccc4c3CC[C@H]4NC(=O)CN3CCCC3)no2)cc1C#N [Compound 68],500 to 5000 pM
2,"CC(C)Oc1ccc(-c2nc(-c3cccc4c3CC[C@@H]4NS(C)(=O)=O)no2)cc1C#N [Compound 69, (S)-N-(4-(5-(3 cyano-4-isopropoxyphenyl)-1,2,4-oxadiazol-3-yl)-2,3-dihydro-1H-inden-1-yl)methanesulfonamide]",< 50 pM
3,"CC(C)Oc1ccc(-c2nc(-c3cccc4c3CC[C@@H]4NS(=O)(=O)CC(=O)O)no2)cc1C#N [Compound 71, (S)-2-(N-(4-(5-(3-cyano-4-isopropoxyphenyl)-1,2,4-oxadiazol-3-yl)-2,3-dihydro-1H-inden-1-yl)sulfamoyl)acetic acid]",50 to 500 pM
4,CCS(=O)(=O)N[C@H]1CCc2c(-c3noc(-c4ccc(OC(C)C)c(C#N)c4)n3)cccc21 [Compound 73],500 to 5000 pM
5,CNCCS(=O)(=O)N[C@H]1CCc2c(-c3noc(-c4ccc(OC(C)C)c(C#N)c4)n3)cccc21 [Compound 74],50 to 500 pM
6,CC(C)CS(=O)(=O)N[C@@H]1CCc2c(-c3noc(-c4ccc(OC(C)C)c(C#N)c4)n3)cccc21 [Compound 76],500 to 5000 pM
7,"CC(C)Oc1ccc(-c2nc(-c3cccc4c3CC[C@@H]4NS(=O)(=O)CCN(C)C)no2)cc1C#N [Compound 78, (S)-N-(4-(5-(3 cyano-4-isopropoxyphenyl)-1,2,4-oxadiazol-3-yl)-2,3-dihydro-1H-inden-1-yl)-2-(dimethylamino)ethanesulfonamide]",500 to 5000 pM
8,CC(C)Oc1ccc(-c2nc(-c3cccc4c3CC[C@H]4NS(=O)(=O)Cc3ccccc3)no2)cc1C#N [Compound 81],500 to 5000 pM
9,"CC(C)Oc1ccc(-c2nc(-c3cccc4c3CC[C@H]4N3CC(O)C3)no2)cc1C#N [Compound 83, (R)-5-(3-(1-(3-hydroxyazetidin-1-yl)-2,3-dihydro-1H-inden-4-yl)-1,2,4-oxadiazol-5-yl)-2-isopropoxybenzonitrile]",50 to 500 pM
10,"CC(C)Oc1ccc(-c2nc(-c3cccc4c3CC[C@@H]4N3CC(O)C3)no2)cc1C#N [Compound 84, (S)-5-(3-(1-(3-hydroxyazetidin-1-yl)-2,3-dihydro-1H-inden-4-yl)-1,2,4-oxadiazol-5-yl)-2-isopropoxybenzonitrile]",50 to 500 pM
11,CC(C)N[C@H]1CCc2c(-c3noc(-c4ccc(OC(C)C)c(C#N)c4)n3)cccc21 [Compound 87],500 to 5000 pM
12,COCCN[C@H]1CCc2c(-c3noc(-c4ccc(OC(C)C)c(C#N)c4)n3)cccc21 [Compound 89],50 to 500 pM
13,"N#Cc1cccc(-c2nc(-c3cccc4c3CC[C@H]4N)no2)c1 [Compound 92, (R)-3-(3-(1-amino-2,3-dihydro-1H-inden-4-yl)-1,2,4-oxadiazol-5-yl)benzonitrile]",> 5000 pM
14,"N#Cc1cc(OC(F)(F)F)cc(-c2nc(-c3cccc4c3CC[C@H]4N)no2)c1 [Compound 93, (R)-3-(3-(1-amino-2,3-dihydro-1H-inden-4-yl)-1,2,4-oxadiazol-5-yl)-5-(trifluoromethoxy)benzonitrile]",> 5000 pM
15,CCOc1ccc(-c2nc(-c3cccc4c3CC[C@H]4N)no2)cc1C#N [Compound 94],500 to 5000 pM
16,"CC(C)Oc1ccc(-c2nc(-c3cccc4c3CC[C@H]4N)no2)cc1Cl [Compound 95, (R)-4-(5-(3-chloro-4-isopropoxyphenyl)-1,2,4-oxadiazol-3-yl)-2,3-dihydro-1H-inden-1-amine]",> 5000 pM
17,"CC(C)Oc1ccc(-c2nc(-c3cccc4c3CC[C@H]4N)no2)cc1 [Compound 96, (R)-4-(5-(4-isopropoxyphenyl)-1,2,4-oxadiazol-3-yl)-2,3-dihydro-1H-inden-1-amine]",> 5000 pM
18,"CC(C)Oc1cc(-c2nc(-c3cccc4c3CC[C@H]4N)no2)ccc1C#N [Compound 98, (R)-4-(3-(1-amino-2,3-dihydro-1H-inden-4-yl)-1,2,4-oxadiazol-5-yl)-2-isopropoxy benzonitrile]",> 5000 pM
19,"CC(C)Oc1ccc(C#N)cc1-c1nc(-c2cccc3c2CC[C@H]3N)no1 [Compound 99, (R)-3-(3-(1-amino-2,3-dihydro-1H-inden-4-yl)-1,2,4-oxadiazol-5-yl)-4-isopropoxy benzonitrile]",> 5000 pM
20,"N#Cc1cc(-c2nc(-c3cccc4c3CC[C@H]4N)no2)ccc1OCC1CC1 [Compound 100, (R)-5-(3-(1-amino-2,3-dihydro-1H-inden-4-yl)-1,2,4-oxadiazol-5-yl)-2-(cyclopropylmethoxy)benzonitrile]",500 to 5000 pM
21,CC(C)Oc1ccc(-c2nc(-c3cccc4c3CC[C@H]4NCCO)no2)cc1Br [Compound 101],500 to 5000 pM
22,CN[C@H]1CCc2c(-c3noc(-c4ccc(OC(C)C)c(C#N)c4)n3)cccc21 [Compound 105],50 to 500 pM
